The values below are quoted from earlier work in patent US20090082370A1, “Pharmaceutical Combinations of PK Inhibitors and Other Active Agents” (priority 2006, published 2009).

The conditions of series [1]: antitumour agent.
The conditions of series [2]: in vivo.
The target of the next series is PKB (Homo sapiens, UniProt P31749). The following applies: read-out: IC50 against PKB.
In a further series the test system is PKA. The following applies: read-out: IC50 against PKA.
The subject of the next series is PKG. The following applies: read-out: IC50 against PKG.
The test system of a further series is PKC. The note with it: read-out: IC50 against PKC.
The test system of a further series is OVCAR-3 tumour cells. The following applies: at concentrations of 50 and 100 microM.
The conditions of series [3]: doses 10 times more than were needed for antitumour activity.
Series [4] concerns phospho-AKT in breast cancer cells. The following applies: both in vitro and in vivo.
Series [5] concerns Acute Promyelocytic Leukemia (APL).

PKB, sequence (P31749 whole entry, species assumed): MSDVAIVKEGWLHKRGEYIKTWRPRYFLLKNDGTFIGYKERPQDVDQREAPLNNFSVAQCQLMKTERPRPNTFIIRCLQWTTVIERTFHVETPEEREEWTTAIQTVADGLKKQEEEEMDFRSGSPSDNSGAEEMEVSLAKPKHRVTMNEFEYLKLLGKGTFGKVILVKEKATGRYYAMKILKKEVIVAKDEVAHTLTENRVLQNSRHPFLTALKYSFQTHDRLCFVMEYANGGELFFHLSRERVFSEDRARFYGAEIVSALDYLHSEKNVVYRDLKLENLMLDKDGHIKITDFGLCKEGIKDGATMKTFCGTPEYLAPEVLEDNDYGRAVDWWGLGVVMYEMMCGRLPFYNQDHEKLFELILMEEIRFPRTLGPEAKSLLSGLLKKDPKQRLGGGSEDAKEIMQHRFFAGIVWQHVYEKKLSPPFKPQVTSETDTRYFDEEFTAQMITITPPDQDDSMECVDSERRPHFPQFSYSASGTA

Consider `CCN[C@H]1CO[C@@H](O[C@H]2[C@H](O[C@H]3C#C/C=C\C#C[C@]4(O)CC(=O)C(NC(=O)OC)=C3/C4=C\CSSSC)O[C@H](C)[C@@H](NO[C@H]3C[C@H](O)[C@H](SC(=O)c4c(C)c(I)c(O[C@@H]5O[C@@H](C)[C@H](O)[C@@H](OC)[C@H]5O)c(OC)c4OC)[C@@H](C)O3)[C@@H]2O)C[C@@H]1OC` [Calicheamicin], for which the “potency relative to adriamycin” value in [1] is on record as “over 1,000 times”.
`CCCCCCCCCCCCCCCCCCOP(=O)([O-])OC1CC[N+](C)(C)CC1` [KRX-0401]: in [2], the half-life (usually the time needed for the level to fall by half in the phase considered) is about 100 h.
`O=S(=O)(NCCNCC=C(c1ccccc1)c1ccccc1)c1cccc2cnccc12` [NL-71-101]: the IC50 (usually the concentration that gives 50% inhibition) is 3.7 µM at PKB, 9 µM with PKA, 36 µM in the series with PKG and 104 µM in the series with PKC. In the series on OVCAR-3 tumour cells, the “apoptosis in OVCAR-3 tumour cells, in which PKB is amplified” value is reported as “induced apoptosis”.
Regarding `CCOC(=O)c1ccc2[nH]c3c(OC)c4[nH]c5ccc(C(=O)OCC)cc5c4cc3c2c1` [SR-13668], in series [3], the “adverse effects in mice” value was “no adverse effects”. The “inhibition of phospho-AKT” value in series [4] is reported as “significantly inhibits”.
Regarding `CC1=C(/C=C/C(C)=C/C=C/C(C)=C/C(=O)O)C(C)(C)CCC1` [Tretinoin, all-trans retinoic acid], in [5], the “remissions in APL patients” value is given as 64-100%.
